Source: patent publication US6215002A, “Pyrrolopyrrolone derivatives as inhibitors of neutrophil elastase” (priority 1996, dated 2001)
pIC50: −log10 of the molar value. Structures can show the parent of a compound that is named as a salt.

Legend:
[1] = target: T1, human neutrophil elastase (Homo sapiens, UniProt P08246); test: In vitro assay of human neutrophil elastase (HNE); assay type: biochemical; conditions: 118 nM purified human neutrophil elastase, pH 8.6, 15 min incubation at 30° C., MeO-succinyl-alanyl-alanyl-prolyl-valyl-p-nitroanilide substrate; read-out: HNE IC50
T1 sequence (P08246 30-267): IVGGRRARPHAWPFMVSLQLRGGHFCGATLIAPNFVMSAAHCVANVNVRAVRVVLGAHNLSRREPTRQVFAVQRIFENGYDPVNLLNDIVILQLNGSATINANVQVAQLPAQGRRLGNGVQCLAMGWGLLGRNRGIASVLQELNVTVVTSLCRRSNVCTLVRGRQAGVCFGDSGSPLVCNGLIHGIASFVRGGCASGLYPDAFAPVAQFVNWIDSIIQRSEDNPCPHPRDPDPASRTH
How it was run: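 Residual activity was taken as the 10 min rate of absorbance rise at 405 nm after adding 0.6 mM MeO-succinyl-AAPV-p-nitroanilide. Curve fitting of activity against concentration gave IC50.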

Intracellular elastase = test: Oral in vivo model using IL-8 induced lung infiltrates for the assessment of intracellular elastase inhibition (hamster test); conditions: effective dose of less than 40 mg/kg, IL-8 intratracheal
Description: An Oral in vivo Model Using IL-8 Induced Lung Infiltrates For the Assessment of Intracellular Elastase Inhibition
Adult hamsters (100-150 g) are randomised into groups (n=4) and fasted overnight. Under gaseous anaesthetic (3% isofluorane) animals are dosed orally with 1 mL/100 g water as vehicle or containing predissolved compounds. Either at the same time, or subsequently under anaesthetic, animals are dosed intratracheally with 1 ug recombinant human IL-8 in 100 uL sterile saline. Six hours after IL-8 dosing animals are sacrificed using intrapertoneal pentobarbitone. The lungs are ravaged with 2×2.5 mL sterile saline and femurs are removed by dissection.
Intracellular elastase is prepared from neutrophils collected by lavage and from femoral bone marrow. This is achieved by sonication of the neutrophils and centrifugation to yield intracellular granules. These are disrupted by freeze/thawing and sonication. Elastase and myeloperoxidase assays are then performed on these samples to assess the efficacy of the compounds and to normalise for neutrophil recovery.

| Structure (SMILES) | pIC50 [1] | duration of effect (Intracellular elastase) |
| --- | --- | --- |
| CC(C)[C@H]1C(=O)N(S(C)(=O)=O)[C@H]2CCN(C(=O)c3ccc(CN4CCCCCC4)cc3)[C@H]12 (relative stereo) [Example 178, rel-(3R,3aR,6aS)-4-(4-Azepin-1-ylmethyl-benzoyl)-3-isopropyl-1-methanesulfonyl-hexahydro-pyrrolo[3,2-b]pyrrol-2-one hydrochloride] | 7.17 | at least 6 hours |
| CC(C)[C@H]1C(=O)N(S(C)(=O)=O)[C@H]2CCN(C(=O)CCCCCN3CCCCCC3)[C@H]12 (relative stereo) [Example 60, rel-(3R,3aR,6aS)-4-(6-Azepin-1-yl-hexanoyl-3-isopropyl-1-methanesulfonyl)-hexahydro-pyrrolo[3,2-b]pyrrol-2-one hydrochloride] | 7.33 | at least 6 hours |
| CCC[C@@H]1C(=O)N(S(C)(=O)=O)[C@@H]2CCN(C(=O)CCCCCN3CCCCCC3)[C@@H]12 [Example 117, hydrochloride] | 7.57 | at least 6 hours |
| CCC[C@H]1C(=O)N(S(C)(=O)=O)[C@H]2CCN(C(=O)/C=C/CN3CCN(C)CC3)[C@H]12.Cl.Cl (relative stereo) [Example 254, rel-(3R,3aR,6aS)-1-Methanesulfonyl-4-[4-(4-methyl-piperazin-1-yl)-but-2E-enoyl]-3-propyl-hexahydro-pyrrolo[3,2-b]pyrrol-2-one dihydrochloride] | 7.01 | at least 6 hours |
| CCC[C@@H]1C(=O)N(S(C)(=O)=O)[C@@H]2CCN(C(=O)CCN3CCCCC3)[C@@H]12.Cl [Example 118, (3S,3aS,6aR)-1-Methanesulfonyl-4-(3-piperidin-1-yl-propionyl)-3-propyl-hexahydro-pyrrolo[3,2-b]pyrrol-2-one hydrochloride] | 7.14 | at least 6 hours |
| CC(C)[C@H]1C(=O)N(S(C)(=O)=O)[C@H]2CCN(C(=O)/C=C/c3ccc(CN4CCCCC4)cc3)[C@H]12.Cl (relative stereo) [Example 158, rel-(3R,3aR,6aS)-3-Isopropyl-1-methanesulfonyl-4-[3-(4-piperidin-1-ylmethyl-phenyl)-(E)-acryloyl]-hexahydro-pyrrolo[3,2-b]pyrrol-2-one hydrochloride] | 7.72 | at least 6 hours |
| CC(C)[C@H]1C(=O)N(S(C)(=O)=O)[C@H]2CCN(C(=O)c3cccc(CN4CCCC4)c3)[C@H]12 (relative stereo) [Example 193, rel-(3R,3aR,6aS)-3-Isopropyl-1-methanesulfonyl-4-(3-pyrroidin-1-ylmethyl-benzoyl)-hexahydro-pyrrolo[3,2-b]pyrrol-2-one hydrochloride] | 7.30 | at least 6 hours |
| CC(C)[C@H]1C(=O)N(S(C)(=O)=O)[C@H]2CCN(C(=O)CCN3CCCCC3)[C@H]12 (relative stereo) [Example 61, rel-(3R,3aR,6aS)-3-isopropyl-1-methanesulfonyl-4-(3-piperidin-1yl-propionyl-hexahydro-pyrrolo[3,2-b]pyrrol-2-one hydrochloride] | 6.62 | at least 6 hours |
| CC(C)[C@H]1C(=O)N(S(C)(=O)=O)[C@H]2CCN(C(=O)c3ccc(CN4CCCCC4)o3)[C@H]12.Cl (relative stereo) [Example 250, rel-(3R,3aR,6aS)-3-Isopropyl-1-methanesulfonyl-4-(5-piperidin-1-ylmethyl-furan-2-carbonyl)-hexahydro-pyrrolo[3,2-b]pyrrol-2-one hydrochloride] | 7.68 | at least 6 hours |
| CC(C)[C@H]1C(=O)N(S(C)(=O)=O)[C@H]2CCN(C(=O)/C=C/CN3CCN(C)CC3)[C@H]12.Cl (relative stereo) [Example 143, rel-(3R,3aR,6aS)-3-Isopropyl-1-methanesulfonyl-4-[4-(4-methyl-piperazin-1-yl)-but-2E-enoyl]-hexahydro-pyrrolo[3,2-b]pyrrol-2-one hydrochloride] | 7.48 | at least 6 hours |
| CC(C)[C@H]1C(=O)N(S(C)(=O)=O)[C@H]2CCN(C(=O)c3ccc(CN4CCN(C)CC4)cc3)[C@H]12.Cl.Cl (relative stereo) [Example 176, rel-(3R,3aR,6aS)-3-Isopropyl-1-methanesulfonyl-4-[4-(4-methyl-piperazin-1-ylmethyl)-benzoyl]-hexahydro-pyrrolo[3,2-b]pyrrol-2-one dihydrochloride] | 7.05 | at least 6 hours |
| CCC[C@H]1C(=O)N(S(C)(=O)=O)[C@H]2CCN(C(=O)CCCCCN3CCCCCC3)[C@H]12 (relative stereo) [Example 59, hydrochloride] | 7.41 | at least 6 hours |
| CC(C)[C@H]1C(=O)N(S(C)(=O)=O)[C@H]2CCN(C(=O)/C=C/CN(C(C)C)C(C)C)[C@H]12.Cl (relative stereo) [Example 144, rel-(3R,3aR,6aS)-4-(4-Diisopropylamino-but-2E-enoyl)-3-isopropyl-1-methanesulfonyl-hexahydro-pyrrolo[3,2-b]pyrrol-2-one hydrochloride] | 7.15 | at least 6 hours |
| CCN(CC)C/C=C/C(=O)N1CC[C@H]2[C@H]1[C@@H](C(C)C)C(=O)N2S(C)(=O)=O (relative stereo) [Example 145, rel-(3R,3aR,6aS)-4-Diethylamino-but-2E-enoyl)-3-isopropyl-1-methanesulfonyl-hexahydro-pyrrolo[3,2-b]pyrrol-2-one hydrochloride] | 7.41 | at least 6 hours |
| CCC[C@H]1C(=O)N(S(C)(=O)=O)[C@H]2CCN(C(=O)c3ccc(CN4CCCCC4)cc3)[C@H]12 (relative stereo) [Example 62, rel-(3R,3aR,6aS)-1-Methanesulfonyl-1-4-(4-piperidin-1-ylmethyl-benzoyl)-3-propyl-hexahydro-pyrrolo[3,2-b]pyrrol-2-one] | 8.00 | at least 6 hours |
| CC(C)[C@H]1C(=O)N(S(C)(=O)=O)[C@H]2CCN(C(=O)/C=C/CN(C)CC(N)=O)[C@H]12 (relative stereo) [Example 150, rel-2-{[(4-(6R-Isopropyl-4-methanesulfonyl-5-oxo-hexahydro-(3aS,6aR)-pyrro[3,2-b]pyrrol-1-yl)-4-oxo-but-2E-enyl]-methyl-amino}-acetamide hydrochloride] | 7.30 | at least 6 hours |
| CCC[C@H]1C(=O)N(S(C)(=O)=O)[C@H]2CCN(S(=O)(=O)c3ccc(NC(C)=O)cc3)[C@H]12 (relative stereo) [Example 63, rel-N-[4-(4-Methanesulfonyl-5-oxo-6R-propyl-hexahydro-(3aS,6aR)-pyrrolo[3,2-b]pyrrole-1-sulfonyl)phenyl]-acetamide] | 8.22 | at least 6 hours |
| CC(C)[C@H]1C(=O)N(S(C)(=O)=O)[C@H]2CCN(C(=O)/C=C/CN3CCOCC3)[C@H]12.Cl (relative stereo) [Example 142, rel-(3R,3aR,6aS)-3-isopropyl-1-methanesulfonyl-4-(4-morpholin-4-yl-but-2E-enoyl)-hexahydro-pyrrolo[3,2-b]pyrrol-2-one hydrochloride] | 7.26 | at least 6 hours |
